Test systems include A549; ACHN; EKVX; HCT-15; IGROV-1; MDA-MB-231; MOLT-4; Malme-3M; NCI-H460; RPMI-8226; RXF 393; SF-295; SK-MEL-28; SK-MEL-5; SNB-75; TK-10; U-251; UACC-62; UO-31; NCI-H226.
Common to all, as to test: inhibition of tumour cell growth, NCI panel, 48 h

Four compounds from ChEMBL document CHEMBL1201862, “PubChem BioAssay data set” (2004) can be followed below.

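Grown in 96-well plates, cells were treated for 48 hours with each compound at five concentrations. Insufficient inhibition: endpoint recorded as highest concentration tested. GI50 marks 50% less growth.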 Active and inactive are the calls of the source. Rule as the data show it: active = GI50 up to about 1.1 µM and inactive = higher. Where only a bound is given, the exact number is not on record here.

In the case of `CN(CCNC(=O)c1nn(-c2ccc(Cl)cc2Cl)c2c1Cc1ccccc1-2)CCNC(=O)c1nn(-c2ccc(Cl)cc2Cl)c2c1Cc1ccccc1-2`, the GI50 with A549 is 3.29 µM (inactive); in the test with ACHN, 4.53 µM (inactive); with EKVX, 20 µM (inactive); in the test on HCT-15, 2.29 µM; in the test with IGROV-1 it was 4.53 µM (inactive); in the test on MDA-MB-231, 2.66 µM (inactive). Moreover, the GI50 with MOLT-4 is 2.12 µM (inactive); in the test with Malme-3M, 1.42 µM (inactive); with NCI-H460, 1.75 µM (inactive); in the test on RPMI-8226, 1.62 µM (inactive); with RXF 393, 2.25 µM (inactive); with SF-295 it was 2.43 µM (inactive). Moreover, the GI50 is 1.97 µM (inactive) in the test on SK-MEL-28; 1.74 µM (inactive) in the test with SK-MEL-5; 5.21 µM (inactive) with SNB-75; 6.31 µM (inactive) with TK-10; 2.49 µM (inactive) in the test with U-251; 1.85 µM (inactive) in the test with UACC-62. Further, in the test on UO-31, the GI50 was 2.94 µM (inactive).

`CCCCCCC1CC(=O)C1(Cl)Cl` (stereo not drawn): the GI50 is > 100 µM (inactive) in the test on A549; 18.3 µM (inactive) in the test on ACHN; 59.2 µM (inactive) in the test on EKVX; 31 µM in the test on HCT-15; 25.1 µM (inactive) with IGROV-1; 30.7 µM (inactive) in the test on MDA-MB-231. Moreover, the GI50 in the test with MOLT-4 is 13.5 µM (inactive); in the test on Malme-3M, 16.1 µM (inactive); in the test with NCI-H226, 43.9 µM (inactive); with NCI-H460, > 10 µM (inactive); in the test with RPMI-8226, 0.377 µM (active); in the test on SF-295 it was 33.9 µM (inactive). Moreover, the GI50 is > 10 µM (inactive) with SK-MEL-28; 17 µM (inactive) in the test on SK-MEL-5; 16.6 µM (inactive) with SNB-75; > 100 µM (inactive) with TK-10; 38.3 µM (inactive) with U-251; 20.3 µM (inactive) in the test on UACC-62. Besides, the GI50 in the test with UO-31 is 19.4 µM (inactive).

For the compound `CCC(C)C(NC(=O)C(CCCCN)NC(=O)C(NC(=O)C(CCC(N)=O)NC(=O)C(CCCNC(=N)N)NC(C)=O)C(C)CC)C(=O)NC(Cc1c[nH]c2ccccc12)C(=O)NC(Cc1ccccc1)C(=O)NC(CCC(N)=O)C(=O)NC(CC(N)=O)C(=O)NC(CCCNC(=N)N)C(=O)NC(CCCNC(=N)N)C(=O)NC(CCSC)C(=O)NC(CCCCN)C(=O)NC(Cc1c[nH]c2ccccc12)C(=O)NC(CCCCN)C(=O)NC(CCCCN)C(N)=O` (stereo not drawn), the GI50 in the test on A549 was > 50 µM (inactive); in the test with ACHN, > 50 µM (inactive); in the test on EKVX, > 50 µM (inactive); in the test on HCT-15, above 50 µM; in the test on IGROV-1 it was > 50 µM (inactive); in the test on MDA-MB-231, 14.3 µM (inactive). In addition, the GI50 in the test with MOLT-4 was > 50 µM (inactive); with Malme-3M it was 34.1 µM (inactive); in the test with NCI-H460, 15.5 µM (inactive); with RPMI-8226, 11.2 µM (inactive); in the test on RXF 393 it was > 50 µM (inactive); with SF-295, > 50 µM (inactive). The GI50 is > 50 µM (inactive) with SK-MEL-28; 22.5 µM (inactive) in the test on SK-MEL-5; > 50 µM (inactive) in the test on TK-10; 17.8 µM (inactive) in the test on U-251; > 50 µM (inactive) in the test with UACC-62.

As to `Cc1ccc(/N=N/c2c(O)c(C(=O)Nc3ccccc3)cc3ccccc23)c([N+](=O)[O-])c1`, the GI50 in the test with A549 is > 100 µM (inactive); in the test on ACHN it was > 100 µM (inactive); with EKVX it was > 100 µM (inactive); in the test with HCT-15, above 100 µM; in the test on IGROV-1 it was > 100 µM (inactive); with MDA-MB-231, > 100 µM (inactive). In addition, the GI50 was > 100 µM (inactive) in the test with MOLT-4; > 100 µM (inactive) with Malme-3M; > 100 µM (inactive) with RPMI-8226; > 100 µM (inactive) in the test with RXF 393; 70.8 µM (inactive) with SF-295; > 100 µM (inactive) in the test on SK-MEL-28. The GI50 in the test on SK-MEL-5, in the test with SNB-75, with TK-10, in the test with U-251, with UACC-62 and with UO-31 was > 100 µM (inactive) throughout.
